Data as given in ChEMBL document CHEMBL1681655, “Identification of a new series of non-peptidic NK3 receptor antagonists” (Bioorg Med Chem Lett, 2011).
pKi: −log10 of the molar value.

Legend:
Substance-P receptor = Substance-P receptor (Homo sapiens, UniProt P25103); test: Displacement of [125I]SP from human cloned NK1 receptor
Liver microsomes [1] = test: Intrinsic clearance in human liver microsomes; assay type: ADME, Microsome
Caco-2 = test: Efflux ratio of permeability from […] in human Caco2 cells; assay type: ADME, cell-based
Neuromedin-K receptor = target: T1, Neuromedin-K receptor (Homo sapiens, UniProt P29371); test: Displacement of [3H]Lu AE93103 from human NK3 receptor expressed in BHK cells; assay type: cell-based
T1 sequence (P29371 whole entry): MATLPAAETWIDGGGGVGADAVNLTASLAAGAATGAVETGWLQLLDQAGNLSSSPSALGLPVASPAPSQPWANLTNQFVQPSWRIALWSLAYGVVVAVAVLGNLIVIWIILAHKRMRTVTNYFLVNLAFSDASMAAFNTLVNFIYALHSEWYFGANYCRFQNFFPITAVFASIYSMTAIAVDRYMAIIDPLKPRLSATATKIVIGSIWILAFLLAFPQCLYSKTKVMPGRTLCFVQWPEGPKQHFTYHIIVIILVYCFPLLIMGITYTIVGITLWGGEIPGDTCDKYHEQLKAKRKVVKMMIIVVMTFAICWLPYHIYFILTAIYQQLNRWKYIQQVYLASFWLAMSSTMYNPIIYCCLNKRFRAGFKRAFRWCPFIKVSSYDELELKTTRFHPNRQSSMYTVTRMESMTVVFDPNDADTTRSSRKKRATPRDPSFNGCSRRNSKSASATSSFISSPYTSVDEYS

[2] = Apparent permeability of the compound in human Caco2 cells; assay type: ADME, cell-based; settings: caco-2
Substance-K receptor = target: T2, Substance-K receptor (Homo sapiens, UniProt P21452); test: Displacement of [125I]NKA from human cloned NK2 receptor
T2 sequence (P21452 whole entry): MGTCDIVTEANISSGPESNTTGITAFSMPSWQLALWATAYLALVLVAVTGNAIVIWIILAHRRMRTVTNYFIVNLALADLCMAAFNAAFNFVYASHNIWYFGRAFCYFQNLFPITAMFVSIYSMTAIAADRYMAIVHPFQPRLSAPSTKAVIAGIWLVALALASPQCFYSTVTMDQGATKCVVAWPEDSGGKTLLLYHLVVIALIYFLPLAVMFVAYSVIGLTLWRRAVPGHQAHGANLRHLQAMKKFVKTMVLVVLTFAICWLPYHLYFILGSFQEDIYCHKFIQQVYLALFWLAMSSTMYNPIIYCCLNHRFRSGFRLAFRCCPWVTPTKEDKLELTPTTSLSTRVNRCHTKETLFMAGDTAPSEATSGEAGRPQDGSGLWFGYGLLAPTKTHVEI

[3] = Oral bioavailability in rat; assay type: ADME, organism-based; settings: in vivo
Gerbillinae = test: Reversal of senktide-induced explorative behavior in sc dosed gerbils compound pretreated 60 mins before senktide induction by […] assay; assay type: functional
[4] = Clearance in rat; assay type: ADME, organism-based; settings: in vivo
Liver microsomes [5] = test: Intrinsic clearance in rat liver microsomes; assay type: ADME, Microsome
[6] = Ratio of drug level in brain to plasma in sc dosed gerbils after 90 mins; assay type: ADME, organism-based; settings: gerbillinae, read-out: BPR

Sequence of Substance-P receptor (P25103 whole entry): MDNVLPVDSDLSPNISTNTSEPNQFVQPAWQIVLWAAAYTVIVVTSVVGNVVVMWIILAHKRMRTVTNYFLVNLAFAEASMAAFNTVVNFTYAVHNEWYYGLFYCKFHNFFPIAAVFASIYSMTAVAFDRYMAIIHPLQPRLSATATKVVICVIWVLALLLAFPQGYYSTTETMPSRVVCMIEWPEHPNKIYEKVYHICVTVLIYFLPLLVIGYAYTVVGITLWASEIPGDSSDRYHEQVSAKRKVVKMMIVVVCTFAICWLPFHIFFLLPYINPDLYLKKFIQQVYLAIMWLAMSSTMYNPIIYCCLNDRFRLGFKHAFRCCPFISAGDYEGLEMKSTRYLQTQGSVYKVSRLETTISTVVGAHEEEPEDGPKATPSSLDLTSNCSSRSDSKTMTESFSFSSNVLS

Structure (SMILES): CC(=O)NC1(c2ccccc2)CCN(C[C@@H]2C[C@@]2(C(=O)N(C)Cc2ccccc2)c2ccc(Cl)c(Cl)c2)CC1
- pKi (Substance-P receptor): 6.89
- CL (Liver microsomes [1]): 3.5 L/min
- Ratio (Caco-2): 2.6
- pKi (Neuromedin-K receptor): 8.23
- Papp [2]: 5.6 ×10⁻⁶ cm/s
- pKi (Substance-K receptor): 7.06

Structure (SMILES): COC(=O)NC1(c2ccccc2)CCN(C[C@@H]2C[C@@]2(C(=O)N(C)Cc2ccccc2)c2ccc(Cl)c(Cl)c2)CC1
- CL (Liver microsomes [1]): 6.3 L/min
- Ratio (Caco-2): > 100
- pKi (Neuromedin-K receptor): 8.82
- Papp [2]: 0.4 ×10⁻⁶ cm/s

Structure (SMILES): CNC(=O)NC1(c2ccccc2)CCN(C[C@@H]2C[C@@]2(C(=O)N(C)Cc2ccccc2)c2ccc(Cl)c(Cl)c2)CC1
- CL (Liver microsomes [1]): 6.8 L/min
- Ratio (Caco-2): 42
- pKi (Neuromedin-K receptor): 8.25
- Papp [2]: 0.6 ×10⁻⁶ cm/s

Structure (SMILES): CN(Cc1ccccc1)C(=O)[C@@]1(c2ccc(Cl)c(Cl)c2)C[C@H]1CN1CCC(NC(N)=O)(c2ccccc2)CC1
- CL (Liver microsomes [1]): 2 L/min
- Ratio (Caco-2): 85
- pKi (Neuromedin-K receptor): 7.92
- Papp [2]: 0.6 ×10⁻⁶ cm/s

Structure (SMILES): CN(Cc1ccccc1)C(=O)[C@@]1(c2ccc(Cl)c(Cl)c2)C[C@H]1CN1CCC(c2ccccc2)(N(C)C(=O)C(N)=O)CC1
- CL (Liver microsomes [1]): 6.9 L/min
- Ratio (Caco-2): 13
- pKi (Neuromedin-K receptor): 8.44
- Papp [2]: 1.3 ×10⁻⁶ cm/s

Structure (SMILES): CN(Cc1ccccc1)C(=O)[C@@]1(c2ccc(Cl)c(Cl)c2)C[C@H]1CN1CCC(NS(C)(=O)=O)(c2ccccc2)CC1
- CL (Liver microsomes [1]): 15 L/min
- Ratio (Caco-2): 120
- pKi (Neuromedin-K receptor): 8.11
- Papp [2]: 0.1 ×10⁻⁶ cm/s

Structure (SMILES): CN(Cc1ccc(F)cc1)C(=O)[C@@]1(c2ccc(Cl)c(Cl)c2)C[C@H]1CN1CCN(C(=O)CN2CCOCC2)CC1
- CL (Liver microsomes [1]): 16 L/min
- Ratio (Caco-2): 1.5
- pKi (Neuromedin-K receptor): 8.48
- Papp [2]: 35 ×10⁻⁶ cm/s

Structure (SMILES): CN(Cc1ccc(F)cc1)C(=O)[C@@]1(c2ccc(Cl)c(Cl)c2)C[C@H]1CN1CCN(CC(=O)N2CCCC2)CC1
- CL (Liver microsomes [1]): 12 L/min
- Ratio (Caco-2): 1.3
- pKi (Neuromedin-K receptor): 8.74
- Papp [2]: 27 ×10⁻⁶ cm/s

Structure (SMILES): CN(C)C(=O)CCN1CCN(C[C@@H]2C[C@@]2(C(=O)N(C)Cc2ccc(F)cc2)c2ccc(Cl)c(Cl)c2)CC1
- CL (Liver microsomes [1]): 8.5 L/min
- Ratio (Caco-2): 1.1
- pKi (Neuromedin-K receptor): 7.77
- Papp [2]: 28 ×10⁻⁶ cm/s

Structure (SMILES): CN(Cc1ccc(F)cc1)C(=O)[C@@]1(c2ccc(Cl)c(Cl)c2)C[C@H]1CN1CCN(C(=O)CN2CCCCC2)CC1
- CL (Liver microsomes [1]): 10 L/min
- Ratio (Caco-2): 4.2
- pKi (Neuromedin-K receptor): 8.14
- Papp [2]: 2.9 ×10⁻⁶ cm/s

Structure (SMILES): CN(Cc1ccc(F)cc1)C(=O)[C@@]1(c2ccc(Cl)c(Cl)c2)C[C@H]1CN1CCN(C(=O)CN2CCCC2)CC1
- CL (Liver microsomes [1]): 5.6 L/min
- Ratio (Caco-2): 3.5
- pKi (Neuromedin-K receptor): 7.92
- Papp [2]: 5.7 ×10⁻⁶ cm/s

Structure (SMILES): CN(Cc1ccc(F)cc1)C(=O)[C@@]1(c2ccc(Cl)c(Cl)c2)C[C@H]1CN1CCN(S(=O)(=O)N(C)C)CC1
- pKi (Substance-P receptor): 6.47
- CL (Liver microsomes [1]): > 20 L/min
- Ratio (Caco-2): 1.5
- pKi (Neuromedin-K receptor): 8.12
- bioavailability [3]: < 5%
- ED50 (Gerbillinae): 14.2 mg/kg
- clearance [4]: 108 mL/min/kg
- Papp [2]: 25 ×10⁻⁶ cm/s
- CL (Liver microsomes [5]): 210 mL/min
- pKi (Substance-K receptor): 7.12
- Kp at 1.5 h [6]: 1.9

Structure (SMILES): CCCNC[C@@H]1C[C@@]1(C(=O)N(C)Cc1ccc(F)cc1)c1ccc(Cl)c(Cl)c1
- CL (Liver microsomes [1]): 0.9 L/min
- Ratio (Caco-2): 2.7
- pKi (Neuromedin-K receptor): 6.82
- Papp [2]: 5.4 ×10⁻⁶ cm/s

Structure (SMILES): CC(C)NC[C@@H]1C[C@@]1(C(=O)N(C)Cc1ccc(F)cc1)c1ccc(Cl)c(Cl)c1
- CL (Liver microsomes [1]): 0.9 L/min
- Ratio (Caco-2): 1.5
- pKi (Neuromedin-K receptor): 6.85
- Papp [2]: 11 ×10⁻⁶ cm/s
